The values below come from patent US20120040955A1 (priority 2009, published 2012).

The conditions of test [1]: Changelian et al., 2003; cited from earlier work.
Test [2] concerns the target T1, JAK2 (Homo sapiens, UniProt O60674).
T1 construct: endogenous in cells; host or cells: Mixed Molt4 / Ramos cell lysate (1:2)
Kind of test: kinobeads assay (competition with affinity matrix in mixed Molt4/Ramos cell lysate, dot blot detection), JAK2. It is filed as binding. To be noted: activity level. On the procedure:
(§1) The compounds of the present invention as described in the previous examples were tested in a kinobeads assay as described for ZAP-70 (WO-A 2007/137867). Briefly, test compounds (at various concentrations) and the affinity matrix with the immobilized aminopyrido-pyrimidine ligand 24 were added to cell lysate aliquots and allowed to bind to the proteins in the lysate sample. After the incubation time the beads with captured proteins were separated from the lysate. Bound proteins were then eluted and the presence of, JAK2 and JAK3 was detected and quantified using specific antibodies in a dot blot procedure and the Odyssey infrared detection system. Dose response curves for individual kinases were generated and IC50 values calculated. Kinobeads assays for ZAP-70 (WO-A 2007/137867) and for kinase selectivity profiling (WO-A 2006/134056) have been previously described.
(§2) 5× DP buffer: 250 mM Tris-HCl pH 7.4, 25% Glycerol, 7.5 mM MgCl2, 750 mM NaCl, 5 mM Na3VO4; filter the 5× DP buffer through a 0.22 μm filter and store in aliquots at −80° C. The 5× DP buffer is diluted with H2O to 1× DP buffer containing 1 mM DTT and 25 mM NaF.
(§3) Stock solutions of test compounds were prepared in DMSO. In a 96 well plate 30 μl solution of diluted test compounds at 5 mM in DMSO were prepared. Starting with this solution a 1:3 dilution series (9 steps) was prepared. For control experiments (no test compound) a buffer containing 2% DMSO was used.
(§4) Molt4 cells (ATCC catalogue number CRL-1582) and Ramos cells (ATCC catalogue number CRL-1596) were grown in 1 litre Spinner flasks (Integra Biosciences, #182101) in suspension in RPMI 1640 medium (Invitrogen, #21875-034) supplemented with 10% Fetal Bovine Serum (Invitrogen) at a density between 0.15×10^6 and 1.2×10^6 cells/ml. Cells were harvested by centrifugation, washed once with 1× PBS buffer (Invitrogen, #14190-094) and cell pellets were frozen in liquid nitrogen and subsequently stored at −80° C. Cells were homogenized in a Potter S homogenizer in lysis buffer: 50 mM Tris-HCl, 0.8% NP40, 5% glycerol, 150 mM NaCl, 1.5 mM MgCl2, 25 mM NaF, 1 mM sodium vanadate, 1 mM DTT, pH 7.5. One complete EDTA-free tablet (protease inhibitor cocktail, Roche Diagnostics, 1873580) per 25 ml buffer was added. The material was dounced 10 times using a mechanized POTTER S, transferred to 50 ml falcon tubes, incubated for 30 minutes on ice and spun down for 10 min at 20,000 g at 4° C. (10,000 rpm in Sorvall SLA600, precooled). The supernatant was transferred to an ultracentrifuge (UZ)-polycarbonate tube (Beckmann, 355654) and spun for 1 hour at 100.000 g at 4° C. (33.500 rpm in Ti50.2, precooled). The supernatant was transferred again to a fresh 50 ml falcon tube, the protein concentration was determined by a Bradford assay (BioRad) and samples containing 50 mg of protein per aliquot were prepared. The samples were immediately used for experiments or frozen in liquid nitrogen and stored frozen at −80° C.
(§5) Cell lysate (approximately 50 mg protein per plate) was thawed in a water bath at room temperature and then kept on ice. To the thawed cell lysate 1× DP 0.8% NP40 buffer containing protease inhibitors (1 tablet for 25 ml buffer; EDTA-free protease inhibitor cocktail; Roche Diagnostics 1873580) was added in order to reach a final protein concentration of 5 mg/ml total protein. The diluted cell lysate was stored on ice. Mixed Molt4/Ramos lysate was prepared by combining one volume of Molt4 lysate and two volumes of Ramos lysate (ratio 1:2).
(§6) To a 96 well filter plate (Multiscreen HTS, BV Filter Plates, Millipore #MSBVN1250) were added per well: 100 μl affinity matrix (3% beads slurry), 3 μl of compound solution, and 50 μl of diluted lysate. Plates were sealed and incubated for three hours in a cold room on a plate shaker (Heidolph tiramax 1000) at 750 rpm. Afterwards the plate was washed twice with 230 μl washing buffer (1× DP 0.4% NP40). […]

The target of test [3] is T2, JAK3 (Homo sapiens, UniProt P52333).
T2 construct: endogenous in cells; host or cells: Mixed Molt4 / Ramos cell lysate (1:2)
T2 sequence (P52333 1-1124): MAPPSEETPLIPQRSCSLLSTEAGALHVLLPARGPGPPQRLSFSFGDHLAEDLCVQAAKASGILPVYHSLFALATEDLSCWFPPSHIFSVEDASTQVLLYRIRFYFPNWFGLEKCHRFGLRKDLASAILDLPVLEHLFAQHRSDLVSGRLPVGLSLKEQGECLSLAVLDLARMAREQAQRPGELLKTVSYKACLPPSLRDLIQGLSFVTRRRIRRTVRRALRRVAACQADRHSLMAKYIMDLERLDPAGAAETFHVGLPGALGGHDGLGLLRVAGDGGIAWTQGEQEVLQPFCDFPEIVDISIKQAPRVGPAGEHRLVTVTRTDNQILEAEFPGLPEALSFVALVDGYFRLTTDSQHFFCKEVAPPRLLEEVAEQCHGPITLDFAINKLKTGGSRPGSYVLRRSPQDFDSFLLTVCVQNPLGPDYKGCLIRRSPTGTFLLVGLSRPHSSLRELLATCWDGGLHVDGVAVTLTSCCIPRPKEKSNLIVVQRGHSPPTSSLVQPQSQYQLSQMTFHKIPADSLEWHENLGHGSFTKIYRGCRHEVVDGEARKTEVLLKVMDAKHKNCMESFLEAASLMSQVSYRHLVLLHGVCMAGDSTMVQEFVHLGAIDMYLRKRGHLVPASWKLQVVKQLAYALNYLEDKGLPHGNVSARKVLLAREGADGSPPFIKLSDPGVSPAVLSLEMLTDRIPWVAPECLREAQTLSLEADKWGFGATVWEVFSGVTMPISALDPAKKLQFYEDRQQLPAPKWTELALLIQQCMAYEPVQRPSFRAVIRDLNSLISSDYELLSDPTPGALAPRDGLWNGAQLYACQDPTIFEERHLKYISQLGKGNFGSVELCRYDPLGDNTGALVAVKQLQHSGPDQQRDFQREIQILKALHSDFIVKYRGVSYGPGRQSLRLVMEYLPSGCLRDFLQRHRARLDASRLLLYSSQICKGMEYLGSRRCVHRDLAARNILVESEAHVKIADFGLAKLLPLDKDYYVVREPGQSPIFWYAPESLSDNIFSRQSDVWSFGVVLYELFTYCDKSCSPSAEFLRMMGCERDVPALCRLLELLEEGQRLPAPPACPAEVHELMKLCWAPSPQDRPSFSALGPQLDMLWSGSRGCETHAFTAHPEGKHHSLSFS
Kind of test: kinobeads assay (competition with affinity matrix in mixed Molt4/Ramos cell lysate, dot blot detection), JAK3. It is filed as binding. To be noted: activity level. On the procedure: as §1, §2, §3, §4, §5, §6

The conditions of test [4]: NOD mouse model of type I diabetes; cited from earlier work.
For test [5] the following is noted: reviewed in Cetkovic-Cvrlje and Ucken, 2004; cited from earlier work.

T1 sequence (O60674 whole entry): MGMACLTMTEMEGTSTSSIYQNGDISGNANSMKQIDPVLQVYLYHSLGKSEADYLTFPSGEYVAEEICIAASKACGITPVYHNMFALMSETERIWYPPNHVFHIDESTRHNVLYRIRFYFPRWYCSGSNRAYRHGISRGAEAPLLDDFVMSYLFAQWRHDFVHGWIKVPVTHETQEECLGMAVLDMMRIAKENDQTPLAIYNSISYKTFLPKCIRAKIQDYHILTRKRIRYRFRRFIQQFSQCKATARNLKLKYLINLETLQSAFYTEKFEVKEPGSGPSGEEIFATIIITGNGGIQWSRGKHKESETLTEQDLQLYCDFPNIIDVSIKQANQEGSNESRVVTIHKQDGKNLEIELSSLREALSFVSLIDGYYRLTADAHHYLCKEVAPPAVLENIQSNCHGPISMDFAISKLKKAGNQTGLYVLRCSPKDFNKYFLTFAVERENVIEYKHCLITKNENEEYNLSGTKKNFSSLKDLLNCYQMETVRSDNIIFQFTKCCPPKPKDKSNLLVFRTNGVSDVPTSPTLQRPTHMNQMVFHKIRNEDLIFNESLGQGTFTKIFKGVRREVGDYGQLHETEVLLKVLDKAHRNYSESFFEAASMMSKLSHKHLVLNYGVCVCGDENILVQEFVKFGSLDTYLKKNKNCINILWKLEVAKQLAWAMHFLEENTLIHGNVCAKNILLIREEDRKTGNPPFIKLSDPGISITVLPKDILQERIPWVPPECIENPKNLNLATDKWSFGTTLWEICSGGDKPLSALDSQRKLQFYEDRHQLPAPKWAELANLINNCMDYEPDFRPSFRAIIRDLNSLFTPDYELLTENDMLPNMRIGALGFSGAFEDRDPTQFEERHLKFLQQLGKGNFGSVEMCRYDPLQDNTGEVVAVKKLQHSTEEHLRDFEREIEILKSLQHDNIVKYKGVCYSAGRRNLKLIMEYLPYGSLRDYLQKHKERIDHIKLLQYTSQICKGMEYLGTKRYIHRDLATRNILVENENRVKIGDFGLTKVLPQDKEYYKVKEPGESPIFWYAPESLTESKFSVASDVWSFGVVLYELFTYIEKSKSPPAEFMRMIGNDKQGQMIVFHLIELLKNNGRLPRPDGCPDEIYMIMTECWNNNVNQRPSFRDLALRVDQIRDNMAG

On to `C[C@@H]1CCN(C(=O)CC#N)C[C@@H]1N(C)c1ncnc2[nH]ccc12` [CP-690,550], for which the “efficacy in an animal model of organ transplantation” value in test [1] is reported as “show efficacy”.
As to `CS(=O)(=O)Nc1ccccc1Nc1nc(Nc2cc(F)c(C(=O)NC3CC3)cc2F)ncc1Cl` [Example 57, 4-((5-chloro-4-((2-(methylsulfonamido)phenyl)amino)pyrimidin-2-yl)amino)-N-cyclopropyl-2,5-difluorobenzamide], the half-maximal inhibitory concentration (IC50) in test [2] was above 10 µM; in test [3], below 0.1 µM.
Taken in the same sequence, the figures for `CC(C)NC(=O)c1ccc(Nc2ncc(Cl)c(Nc3ccccc3NS(C)(=O)=O)n2)c(F)c1F` [Example 58, 4-((5-chloro-4-((2-(methylsulfonamido)phenyl)amino)pyrimidin-2-yl)amino)-2,3-difluoro-N-isopropylbenzamide] were 1 to 10 µM and below 0.1 µM.
The corresponding values for `Cc1cccc(Nc2nc(Nc3cc(C(=O)NCCO)ccc3F)ncc2Cl)c1NS(C)(=O)=O` [Example 59, 3-((5-chloro-4-((3-methyl-2-(methylsulfonamido)phenyl)amino)pyrimidin-2-yl)amino)-4-fluoro-N-(2-hydroxyethyl)benzamide] are above 10 µM and below 0.1 µM.
Taken in the same sequence, the figures for `CCNC(=O)c1ccc(Nc2ncc(Cl)c(Nc3cccc(F)c3NS(C)(=O)=O)n2)c(F)c1` [Example 60, 4-((5-chloro-4-((3-fluoro-2-(methylsulfonamido)phenyl)amino)pyrimidin-2-yl)amino)-N-ethyl-3-fluorobenzamide] were above 10 µM and below 0.1 µM.
`CCNC(=O)c1ccc(Nc2ncc(Cl)c(Nc3ccccc3NS(C)(=O)=O)n2)c(F)c1` [Example 61, 4-((5-chloro-4-((2-(methylsulfonamido)phenyl)amino)pyrimidin-2-yl)amino)-N-ethyl-3-fluorobenzamide]: the IC50 in test [2] is 1 to 10 µM; in test [3], below 0.1 µM.
Taken in the same sequence, the figures for `CS(=O)(=O)Nc1c(F)cc(F)cc1Nc1nc(Nc2cc(C(=O)NC3CC3)ccc2F)ncc1Cl` [Example 62, 3-((5-chloro-4-((3,5-difluoro-2-(methylsulfonamido)phenyl)amino)pyrimidin-2-yl)amino)-N-cyclopropyl-4-fluorobenzamide] were 1 to 10 µM and 0.1 to 1 µM.
The corresponding values for `CNC(=O)c1ccc(F)c(Nc2ncc(Cl)c(Nc3cc(F)c(F)cc3NS(C)(=O)=O)n2)c1` [Example 63, 3-(5-chloro-4-(4,5-difluoro-2-(methylsulfonamido)phenylamino)pyrimidin-2-ylamino)-4-fluoro-N-methylbenzamide] are 1 to 10 µM and 0.1 to 1 µM.
With `COc1cc2ncnc(Nc3ccc(O)cc3)c2cc1OC` [JANEX-1], the “spontaneous autoimmune diabetes development” value in test [4] was “prevent spontaneous autoimmune diabetes development”. Also, the “severity of GVHD” value in test [5] is on record as “attenuate the severity of GVHD”.

The IC50 is the midpoint of a concentration-inhibition curve. Read a high IC50 as lower potency.
